{
  "source": "patent US20250154201A1",
  "about": "“PEPTIDE BINDING TO MESOTHELIN, AND USE THEREOF” (KYUNGPOOK NATIONAL UNIVERSITY INDUSTRY-ACADEMIC COOPERATION …, priority 2022, published 2025)",
  "key": {"[1]": {"test_system": "PANC-1 and AsPC-1 cell lines", "experiment": "analysis of invasion (Matrigel-coated 24-transwell)", "assay_type": "cell-based, human", "conditions": "24 hours", "procedure": "PANC-1 and AsPC-1 cell lines were cultured using DMEM and RPMI-1640 media with 10% FBS added in 100 mm dish each at a concentration of 2×10^6 cells per well. After 24 hours, all media in 100 mm dishes were removed and replaced with DMEM and RPMI-1640 media without addition of 10% FBS to inhibit migratability of cell lines so as to be in a starvation state. After 24 hours, 300 μg/mL of Matrigel was coated on the upper chamber of 24-Transwell. Afterwards, PANC-1 and AsPC-1 cell lines were cultured in the upper chamber at a concentration of 2×10^4 cells in a 100 mm dish, 10% FBS was added to the lower chamber for the experimental group, and 0% FBS was added to the lower chamber for the control group to identify migratability. 3% ACN, 200 μM control peptide (Ctrl-pep), MSLN-pep 25. For 50, 100, and 200 μM groups, each cell line was cultured together in the upper chamber of the 24-Transwell, and 10% FBS was treated in the lower chamber. Each group was cultured at 37° C. for 24 hours, and then the cells were photographed (original magnification, ×100) for each concentration of peptides. Cells were stained with crystal violet (0.1%), and Image J, a computer program, was used for quantitative evaluation.\nAfter pancreatic cancer cell lines PANC-1 and AsPC-1 were cultured in 24-transwells, all cells were starved for 24 hours to inhibit cell growth, and then treatment was performed in divided groups of 10% FBS, 0% FBS, 3% ACN+10% FBS, 200 μM NSSSVDK+10% FBS, 25 μM MSLN-pep+10% FBS, 50 μM MSLN-pep+10% FBS, 100 μM MSLN-pep+10% FBS, and 200 μM MSLN-pep+10% FBS."}, "AsPC-1 tumor": {"test_system": "AsPC-1 tumor", "experiment": "tumor homing of peptides in mice", "assay_type": "in vivo, nude mice", "conditions": "TAMRA-labeled, intravenous, 6 hours circulation", "procedure": "Pancreatic cancer cell line AsPC-1 cells (1×10^7 cells) were implanted under the skin of nude mice, left until the tumor size reaches about 100 mm^3, and then intravenously injected with 100 μl of 1 mM peptides labeled with a TAMRA fluorescence reagent, followed by circulation for 6 hours. Tumors and organs (liver, lung, and kidney) were separated and treated with paraformaldehyde for fixation and preparation of cryosections. The prepared cryosections were observed under a fluorescence microscope.\nPancreatic cancer cell line AsPC-1 cells (1×10^7 cells) were implanted under\nthe skin of nude mice, left until the tumor size reached about 100 mm^3, and then intravenously injected with MSLN-pep labeled with the TAMRA fluorescence reagent and control peptide (Ctrl-pep), followed by circulation for 6 hours. The tumor and control organs were separated, and cryosections were prepared, followed by observation under a fluorescence microscope."}, "in vitro": {"experiment": "in vitro", "conditions": "human", "procedure": "Pancreatic cancer cell line AsPC-1 cells (5×10^3 cells/well in 96-well plates) were cultured in 1% serum medium with various concentrations of MSLN-pep peptide that specifically binds to mesothelin, NSSSVDK control peptide (Ctrl-pep), R7-KLA peptide that induces apoptosis, Abraxane, gemcitabine, and PBS at 37° C. for 24 and 48 hours. Afterwards, CCK-8 Kit (Dojindo, Kumamoto, Japan) reagent was treated, and a reaction was carried out at 37° C. for 2 hours to evaluate cytotoxicity.\nTo determine whether there is cytotoxicity when MSLN-pep binds specifically to mesothelin, the peptide was treated to the pancreatic cancer cell line AsPC-1 at concentrations of 0, 25, 50, 100, and 200 μM, and cell viability was checked for 24 and 48hours."}, "mesothelin [2]": {"target": "T1, mesothelin (Homo sapiens, UniProt Q13421)", "T1 sequence (Q13421 with tags, fused parts or gaps)": "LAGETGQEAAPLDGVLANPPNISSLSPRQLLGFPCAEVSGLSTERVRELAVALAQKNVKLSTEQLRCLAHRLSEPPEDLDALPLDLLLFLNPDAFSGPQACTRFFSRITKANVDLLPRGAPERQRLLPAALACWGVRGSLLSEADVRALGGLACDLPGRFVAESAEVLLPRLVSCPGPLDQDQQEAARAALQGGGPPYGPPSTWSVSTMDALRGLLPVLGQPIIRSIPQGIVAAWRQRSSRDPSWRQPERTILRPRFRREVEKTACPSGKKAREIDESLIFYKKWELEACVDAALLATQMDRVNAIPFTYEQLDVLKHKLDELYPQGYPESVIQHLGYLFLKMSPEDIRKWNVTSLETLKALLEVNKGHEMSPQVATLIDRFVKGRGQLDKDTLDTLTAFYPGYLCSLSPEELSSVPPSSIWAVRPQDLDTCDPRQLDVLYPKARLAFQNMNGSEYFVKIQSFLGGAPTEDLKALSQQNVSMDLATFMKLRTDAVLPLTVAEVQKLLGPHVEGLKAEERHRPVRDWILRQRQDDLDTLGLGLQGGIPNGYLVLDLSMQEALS", "experiment": "phage-binding ELISA and phage immunofluorescence staining of phage clones", "design": "GFP; host or cells: HEK293T", "conditions": "phage clone, compared to other phage clones", "excerpt": "A phage peptide library based on the T7 415-1b phage vector, represented by CX7C (C, cysteine; X, any amino acid residue) was designed according to the manufacturer's instructions (Novagen, Madison, WI). The phage library has approximately 1×10^9 plaque-forming unit (pfu). In other words, HEK-293T cells transfected with a mesothelin-expressing plasmid pCMV6-AC-GFP vector were dispensed in a 35 mm dish and cultured to meet a confluency of 60-70%. For transient transfection of HEK-293T cells, the cells were treated with Lipofectamine 3000 (Invitrogen) and cultured for 48 hours. First, phage libraries with 1×109 plaque-forming unit (pfu) were cultured in untransfected HEK-293T cells at 4° C. for 30 minutes. […] The eluate was used for titration, the remaining eluted phage clones were lysed in 10 ml of LB medium for amplification for the next cycle, and the process was repeated 5 times. […]\nTo screen peptides specifically binding to mesothelin, the present inventors first prepared HEK-293T cells transiently transfected with a mesothelin-GFP plasmid. […] As a result of observing mesothelin-GFP expression via immunofluorescence analysis, transfection was detected at each time point compared to untransfected HEK-293T cells (FIG. 2A). […]"}, "mesothelin [3]": {"target": "T1, mesothelin", "experiment": "immunofluorescence binding to HEK-293T cells transiently transfected with mesothelin-GFP plasmid", "assay_type": "cell-based", "design": "GFP; host or cells: HEK293T", "conditions": "10 μM and 25 μM MSLN-pep, 25 μM Ctrl-pep; transfected and untransfected HEK-293T", "procedure": "HEK293T cells were transiently transfected using Lipofectamine 3000 (Invitrogen) in 6-well plates according to the manufacturer's protocol. Prior to transfection, 2×10^5 cells were cultured in 6-well plates for 24 hours. To transfect one well, 7.5 μl of Lipofectamine 3000 reagent was diluted in 250 μl of Opti-MEM (Invitrogen) reagent, followed by a reaction at room temperature for 5 minutes. 5 μg of mesothelin-expressing plasmid pCMV6-AC-GFP vector DNA was diluted in 250 μl of Opti-MEM (Invitrogen) reagent, followed by a reaction at room temperature for 5 minutes. The mixture of two solutions were then mixed and reacted at room temperature for 10 minutes (a total of 500 μl per well). The old medium of the cells was immediately removed, and a 500 μl of DNA-transfection reagent-mixture was added to the cells before transfer to the incubator. After 24 hours of culture, the medium was again replaced with a pre-warmed growth medium containing serum. Culture was performed for 48 hours, and the newly inserted protein was expressed in the cells.\nTaken together, it was found via immunofluorescence analysis that MSLN-pep specifically binds to mesothelin."}},
  "data": [
    {"compound": "CC[C@H](C)[C@@H]1NC(=O)[C@H]([C@@H](C)O)NC(=O)[C@@H](N)CSSC[C@@H](C(=O)O)NC(=O)[C@H]([C@@H](C)O)NC(=O)[C@H](CC(C)C)NC(=O)[C@H](CO)NC(=O)[C@H](Cc2c[nH]c3ccccc23)NC(=O)[C@H](CC(C)C)NC1=O", "note": "[MSLN-pep]", "values": [
      {"measurement": "invasiveness compared to treatment of 10% FBS", "setting": "[1]; 25 μM + 10% FBS", "result": "no difference in the migratability and invasiveness"},
      {"measurement": "invasiveness", "setting": "[1]; 50, 100 and 200 μM + 10% FBS", "result": "suppressed with increasing concentrations of MSLN-pep"},
      {"measurement": "targeting to control organs (fluorescence microscopy of cryosections)", "setting": "AsPC-1 tumor; liver, lungs, kidneys", "result": "barely observed"},
      {"measurement": "targeting to tumor tissue (fluorescence microscopy of cryosections)", "setting": "AsPC-1 tumor; tumor tissue", "result": "observed at a higher level compared to the control"},
      {"measurement": "viability at 200 µM", "setting": "in vitro", "result": "~80", "unit": "%"},
      {"measurement": "binding to mesothelin through phage ELISA and phage immunofluorescence staining", "setting": "mesothelin [2]", "result": "binds to mesothelin in high degree"},
      {"measurement": "specific binding (immunofluorescence)", "setting": "mesothelin [3]", "result": "bound only to the mesothelin-expressing portion"}
    ]}
  ]
}
